Measured values published in patent US8188139B2, “Heterocyclic-substituted phenyl methanones” (Hoffman-La Roche Inc., priority 2005, dated 2012).

Molecular target: T1, mGlyT-1b (Mus musculus, UniProt P28571)
T1 construct: host or cells: Flp-in-CHO
T1 sequence (P28571 1-651 isoform P28571-2): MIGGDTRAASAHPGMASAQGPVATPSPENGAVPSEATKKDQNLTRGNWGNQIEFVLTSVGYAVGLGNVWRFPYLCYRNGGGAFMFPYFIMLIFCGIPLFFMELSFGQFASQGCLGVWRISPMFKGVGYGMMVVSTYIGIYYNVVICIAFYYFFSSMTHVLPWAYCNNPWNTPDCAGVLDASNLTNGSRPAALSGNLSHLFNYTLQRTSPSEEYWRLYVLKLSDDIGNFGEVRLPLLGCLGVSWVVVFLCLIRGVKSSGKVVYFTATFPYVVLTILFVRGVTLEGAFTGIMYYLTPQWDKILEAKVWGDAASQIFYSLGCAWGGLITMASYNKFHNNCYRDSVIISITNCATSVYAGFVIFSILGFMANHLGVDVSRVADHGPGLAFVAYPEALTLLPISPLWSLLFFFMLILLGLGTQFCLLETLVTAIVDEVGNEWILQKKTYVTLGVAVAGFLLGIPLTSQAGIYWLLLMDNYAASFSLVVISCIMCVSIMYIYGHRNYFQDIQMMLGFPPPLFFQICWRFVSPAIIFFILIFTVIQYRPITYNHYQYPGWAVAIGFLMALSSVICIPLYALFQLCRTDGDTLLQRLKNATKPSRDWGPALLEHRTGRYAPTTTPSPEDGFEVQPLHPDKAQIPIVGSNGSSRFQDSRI
Test: Glycine uptake inhibition assay (mGlyT-1b)
Assay type: cell-based
Conditions: inhibition of [3H]-glycine uptake in Flp-in-CHO cells transfected with mGlyT-1b cDNA; 20 min preincubation at 22° C.; read-out: IC50 (μM) at GlyT-1
In short: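 Flp-in CHO cells stably expressing mouse GlyT-1b were preincubated with inhibitor (concentration range) for 20 min at 22° C. in pH 7.4 uptake buffer; nonspecific uptake defined with 10 mM glycine. [3H]-glycine 60 nM plus 25 μM unlabelled glycine was then added; cell-associated radioactivity counted by scintillation and IC50 derived.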

In the case of `Cc1cc2c(cc1Cl)CN(C(=O)c1cc(S(C)(=O)=O)ccc1OCC(C)C)C2` [Example 56, (5-Chloro-6-methyl-1,3-dihydro-isoindol-2-yl)-(2-isobutoxy-5-methanesulfonyl-phenyl)-methanone], the IC50 is reported as 0.016 µM.
